Reference: patent publication US7524844B2, “Dipeptidyl peptidase IV inhibitors, process for their preparation and compositions containing them” (Glenmark Pharmaceuticals S.A., priority 2004, dated 2009)
Counter-ions that a name gives are not always drawn.

Each molecule was assayed against T1, human recombinant Dipeptidyl peptidase IV enzyme (DPP-IV) (Homo sapiens, UniProt P27487) (assay: in-vitro DPP-IV assay (cleavage of AMC from Gly-Pro-AMC)). Conditions: human recombinant DPP-IV, Gly-Pro-AMC substrate, 30° C., 30 minutes; read-out: DPP-IV inhibition using human recombinant DPP-IV enzyme, IC50.
T1 construct: purchased R&D Systems Inc. of Minneapolis, Minn
T1 sequence (P27487 whole entry): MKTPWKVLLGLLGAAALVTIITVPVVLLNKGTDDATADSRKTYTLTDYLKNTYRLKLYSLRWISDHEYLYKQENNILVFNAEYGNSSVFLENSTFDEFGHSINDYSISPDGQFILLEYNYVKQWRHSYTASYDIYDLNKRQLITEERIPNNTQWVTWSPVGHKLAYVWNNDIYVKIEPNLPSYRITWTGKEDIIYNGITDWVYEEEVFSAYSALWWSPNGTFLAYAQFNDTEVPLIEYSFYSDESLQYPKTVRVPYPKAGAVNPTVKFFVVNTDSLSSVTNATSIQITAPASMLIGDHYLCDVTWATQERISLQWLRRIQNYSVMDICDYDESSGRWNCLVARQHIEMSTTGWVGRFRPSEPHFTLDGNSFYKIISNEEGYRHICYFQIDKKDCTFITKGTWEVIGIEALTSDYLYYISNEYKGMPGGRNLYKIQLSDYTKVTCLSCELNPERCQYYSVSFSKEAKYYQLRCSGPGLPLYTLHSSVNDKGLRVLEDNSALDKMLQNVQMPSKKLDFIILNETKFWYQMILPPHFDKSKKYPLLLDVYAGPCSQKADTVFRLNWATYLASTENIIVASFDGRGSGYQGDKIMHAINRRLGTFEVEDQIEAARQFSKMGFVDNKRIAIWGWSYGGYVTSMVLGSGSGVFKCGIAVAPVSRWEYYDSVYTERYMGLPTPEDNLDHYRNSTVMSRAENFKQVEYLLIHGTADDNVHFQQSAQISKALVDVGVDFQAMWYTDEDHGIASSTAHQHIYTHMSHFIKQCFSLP
Type: biochemical
Experimental: DPP-IV activity was determined by the cleavage rate of 7-amino-4-methyl coumarin (AMC) from the synthetic substrate Glycyl-Prolyl-AMC. In brief, the assay was conducted by adding 10 ng of human recombinant Dipeptidyl peptidase IV enzyme (DPP-IV, available commercially from R&D Systems Inc. of Minneapolis, Minn.) in 50 μl of the assay buffer (25 mM Tris, pH 7.4, 140 mM NaCl, 10 mM KCl, 1% BSA) to 96 well black flat bottom microtiter plates. The reaction was initiated by adding 50 μl of 100 μM substrate Gly-Pro-AMC. The incubation was carried out in the kinetic mode at 30° C. for 30 minutes. Fluorescence was measured using Fluorostar with an excitation filter of 380 nm and emission filter of 460 nm. Test compounds and solvent controls were added as 1 μl additions. A standard curve of free amino methyl coumarin (AMC) was generated using 0-100 μM AMC in the assay buffer. The curve generated, which was linear was used for the interpolation of catalytic activity.
Test compounds dissolved in DMSO at 5-6 concentrations were tested in duplicate along with the solvent control and blank samples. Percent inhibition was calculated at each concentration with respect to the solvent control sample (no test compound added). […]
With `N#CCC[C@H]1CC[C@@H](NCC(=O)N2C[C@@H](F)C[C@H]2C#N)C1` [Example-9, 3-((1R,3R)-3-{2-[(2S,4S)-2-Cyano-4-fluoropyrrolidin-1-yl]-2-oxoethylamino}-cyclopentyl)propanenitrile] the IC50 was 3.93 nM. Work on `N#C[C@@H]1CCCN1C(=O)CN[C@@H]1CC[C@H](CNC(=O)Nc2ccccc2)C1` [Example-13, N1-Phenyl-N3-((1S,3R)-3-{2-[(2S)-2-cyanopyrrolidin-1-yl]-2-oxoethylamino}-cyclopentylmethyl)urea] yielded an IC50 of 31.9 nM. For `N#C[C@@H]1CCCN1C(=O)CN[C@@H]1CC[C@H](CNC(=O)Nc2ccc(F)cc2F)C1` [Example-14, N1-(2,4-Difluorophenyl)-N3-((1S,3R)-3-{2-[(2S)-2-cyanopyrrolidin-1-yl]-2-oxoethyl-amino}cyclopentylmethyl)urea], the IC50 was 26.3 nM. `N#C[C@@H]1C[C@H](F)CN1C(=O)CN[C@@H]1CC[C@H](Cc2ccccc2)C1` [Example-15, (2S,4S)-1-{2-[(1R,3R)-3-Benzylcyclopentylamino]acetyl}-4-fluoropyrrolidin-2-yl cyanide] showed an IC50 of 6.06 nM. In the case of `COc1ccccc1C[C@H]1CC[C@@H](NCC(=O)N2C[C@@H](F)C[C@H]2C#N)C1` [Example-16], the IC50 is reported as 17.7 nM. Work on `N#C[C@@H]1CCCN1C(=O)CN[C@@H]1CC[C@H](CN2CCCS2(=O)=O)C1` [Example-18, (2S)-1-{2-[(3S,1R)-3-(1,1-Dioxo-2-isothiazolidinylmethyl)cyclopentylamino]acetyl}-pyrrolidine-2-carbonitrile] yielded an IC50 of 29.4 nM. Molecule `N#C[C@@H]1CCCN1C(=O)CN[C@@H]1CC[C@H](CN2CCOCC2)C1` [Example-19, (2S)-1-{2-[(3S,1R)-3-Morpholinomethylcyclopentylamino]acetyl}pyrrolidine-2-carbonitrile] has an IC50 of 20.1 nM. `N#C[C@@H]1CCCN1C(=O)CN[C@H]1CC[C@@H](CN2CCN(c3ccccc3)CC2)C1` [Example-23, (2S)-1-{2-[(1S,3R)-3-(4-Phenylpiperazinomethyl)cyclopentylamino]acetyl}-pyrrolidine-2-carbonitrile] was tested, and the IC50 was 32 nM. For `Cc1ccc(C)n1C[C@H]1CC[C@@H](NCC(=O)N2CCC[C@H]2C#N)C1` [Example-24, (2S)-1-{2-[(3S,1R)-3-(2,5-Dimethyl-1H-1-pyrrolylmethyl)cyclopentylamino}acetyl}-pyrrolidine-2-carbonitrile], the IC50 was 4.19 nM. `Cc1ccc(C)n1C[C@H]1CC[C@@H](NCC(=O)N2C[C@@H](F)C[C@H]2C#N)C1` [Example-25, (2S,4S)-1-{2-[(3S,1R)-3-(2,5-Dimethyl-1H-1-pyrrolylmethyl)cyclopentylamino]-acetyl}-4-fluoropyrrolidine-2-carbonitrile] was tested, and the IC50 was 7.4 nM. Molecule `N#Cc1cccn1C[C@H]1CC[C@@H](NCC(=O)N2CCC[C@H]2C#N)C1` [Example-26, 1-((1S,3R)-3-{2-[(2S)-2-Cyanopyrrolidin-1-yl]-2-oxoethylamino}cyclopentylmethyl)-1H-pyrrole-2-carbonitrile] has an IC50 of 5.94 nM. Work on `N#C[C@@H]1CCCN1C(=O)CN[C@H]1CC[C@@H](Cn2cccn2)C1` [Example-28, (2S)-1-{2-[(1S,3R)-3-(1H-Pyrazol-1-ylmethyl)cyclopentylamino]acetyl}pyrrolidine-2-carbonitrile] yielded an IC50 of 37.3 nM. Work on `N#C[C@@H]1CCCN1C(=O)CN[C@@H]1CC[C@H](Cn2ccnc2)C1` [Example-29, (2S)-1-{2-[(3S,1R)-3-(1H-1-Imidazolylmethyl)cyclopentylamino]acetyl}pyrrolidine-2-carbonitrile] yielded an IC50 of 11.2 nM. Work on `N#Cc1ncn(C[C@H]2CC[C@@H](NCC(=O)N3CCC[C@H]3C#N)C2)c1C#N` [Example-34, 1-((1S,3R)-3-{2-[(2S)-2-Cyanopyrrolidin-1-yl]-2-oxoethylamino}cyclopentylmethyl)-1H-4,5-imidazoledicarbonitrile] yielded an IC50 of 9.36 nM. In the case of `N#C[C@@H]1CCCN1C(=O)CN[C@@H]1C=C[C@H](Cn2cncn2)C1` [Example-35], the IC50 is reported as 68.3 nM. For `N#C[C@@H]1CCCN1C(=O)CN[C@@H]1CC[C@H](Cn2cncn2)C1` [Example-37, (2S)-1-{2-[(3S,1R)-3-(1H-1,2,4-Triazol-1-ylmethyl)cyclopentylamino]acetyl}-pyrrolidine-2-carbonitrile], the IC50 was 5.1 nM. `N#C[C@@H]1CCCN1C(=O)CN[C@@H]1CC[C@H](Cn2cncn2)C1` [Example-39, (2S)-1-{2-[(3S,1R)-3-(1H-1,2,4-Triazol-1-ylmethyl)cyclopentylamino]acetyl}-pyrrolidine-2-carbonitrile maleate] showed an IC50 of 5.05 nM. With `N#C[C@@H]1CCCN1C(=O)CN[C@H]1CC[C@@H](Cn2cncn2)C1` [Example-40, (2S)-1-{2-[(3R,1S)-3-(1H-1,2,4-Triazol-1-ylmethyl)cyclopentylamino]acetyl}-pyrrolidine-2-carbonitrile] the IC50 was 12.5 nM. `N#C[C@@H]1C[C@H](F)CN1C(=O)CN[C@@H]1CC[C@H](Cn2cncn2)C1` [Example-42, (2S,4S)-1-{2-[(3S,1R)-3-(1H-1,2,4-Triazol-1-ylmethyl)cyclopentylamino]acetyl}-4-fluoropyrrolidine-2-carbonitrile] was tested, and the IC50 was 1.61 nM. Molecule `N#C[C@@H]1C[C@H](F)CN1C(=O)CN[C@@H]1CC[C@H](Cn2cncn2)C1` [Example-43, (2S,4S)-1-{2-[(3S,1R)-3-(1H-1,2,4-Triazol-1-ylmethyl)cyclopentylamino]acetyl}-4-fluoropyrrolidine-2-carbonitrile hydrochloride] has an IC50 of 6.25 nM. Molecule `N#C[C@@H]1C[C@H](F)CN1C(=O)CN[C@@H]1CC[C@H](Cn2cncn2)C1` [Example-44, (2S,4S)-1-{2-1(3S,1R)-3-(1H-1,2,4-Triazol-1-ylmethyl)cyclopentylamino]acetyl}-4-fluoropyrrolidine-2-carbonitrile methanesulfonate] has an IC50 of 3.73 nM. `N#C[C@@H]1C[C@H](F)CN1C(=O)CN[C@@H]1CC[C@H](Cn2cncn2)C1` [Example-45, (2S,4S)-1-{2-[(3S,1R)-3-(1H-1,2,4-Triazol-1-ylmethyl)cyclopentylamino]acetyl}-4-fluoropyrrolidine-2-carbonitrile oxalate] showed an IC50 of 4.63 nM. For `N#C[C@@H]1C[C@H](F)CN1C(=O)CN[C@@H]1CC[C@H](Cn2cncn2)C1` [Example-46, (2S,4S)-1-{2-[(3S,1R)-3-(1H-1,2,4-Triazol-1-ylmethyl)cyclopentylamino]acetyl}-4-fluoropyrrolidine-2-carbonitrile succinate], the IC50 was 4.37 nM. `N#C[C@@H]1C[C@H](F)CN1C(=O)CN[C@@H]1CC[C@H](Cn2cncn2)C1` [Example-49, (2S,4S)-1-{2-[(3S,1R)-3-(1H-1,2,4-Triazol-1-ylmethyl)cyclopentylamino]acetyl}-4-fluoropyrrolidine-2-carbonitrile salicylate] was tested, and the IC50 was 3.22 nM. Molecule `N#C[C@@H]1C[C@H](F)CN1C(=O)CN[C@H]1CC[C@@H](Cn2cncn2)C1` [Example-52, (2S,4S)-1-{2-[(1S,3R)-3-(1H-1,2,4-Triazol-1-ylmethyl)cyclopentylamino]acetyl}-4-fluoropyrrolidine-2-carbonitrile] has an IC50 of 3.54 nM. Molecule `N#C[C@@H]1C[C@H](F)CN1C(=O)CN[C@@H]1CC[C@@H](Cn2cncn2)C1` [Example-53, (2S,4S)-4-Fluoro-1-{2-[(1R,3R)-3-(1H-1,2,4-Triazol-1-ylmethyl)cyclopentylamino]-acetyl}pyrrolidin-2-carbonitrile] has an IC50 of 5.12 nM.
